Assay results taken from patent publication US20250361234A1 (NICO THERAPEUTICS, INC., priority 2022, published 2025).

Molecular target: T1, full-length SARM1 (FL-SARM1) (Homo sapiens, UniProt Q6SZW1)
T1 sequence (Q6SZW1 28-724): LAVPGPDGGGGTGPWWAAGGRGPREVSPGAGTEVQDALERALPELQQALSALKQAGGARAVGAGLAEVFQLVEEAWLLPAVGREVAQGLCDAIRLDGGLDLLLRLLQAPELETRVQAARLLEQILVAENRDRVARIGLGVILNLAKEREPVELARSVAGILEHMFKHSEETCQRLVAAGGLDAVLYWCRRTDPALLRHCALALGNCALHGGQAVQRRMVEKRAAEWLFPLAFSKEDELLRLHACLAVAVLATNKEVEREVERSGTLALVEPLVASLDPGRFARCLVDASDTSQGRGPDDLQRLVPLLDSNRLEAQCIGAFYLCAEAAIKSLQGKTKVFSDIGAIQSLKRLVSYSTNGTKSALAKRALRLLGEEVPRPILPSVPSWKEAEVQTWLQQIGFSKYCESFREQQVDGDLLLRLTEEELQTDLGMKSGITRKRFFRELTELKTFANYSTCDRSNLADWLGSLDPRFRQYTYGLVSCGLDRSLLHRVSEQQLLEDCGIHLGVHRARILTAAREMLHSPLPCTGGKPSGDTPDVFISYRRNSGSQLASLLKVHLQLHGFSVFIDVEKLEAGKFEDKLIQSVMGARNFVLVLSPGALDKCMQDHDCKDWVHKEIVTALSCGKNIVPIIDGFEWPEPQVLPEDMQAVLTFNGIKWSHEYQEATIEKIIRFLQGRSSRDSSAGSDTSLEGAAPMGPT
Experiment: FL-SARM1 cellular lysate assay (NAD/NADH-Glo readout of remaining NAD+)
Settings: SARM1 cellular lysate from transfected HEK293T cells, NAD+ and NMN, 11 point curve
Procedure: Preparation of full-length SARM1 (FL-SARM1) lysate: HEK293T cells (ATCC: CRL-3216) were grown on 150 mm TC-treated dishes to 80-90% confluency in complete DMEM (Thermo Fisher: 11965175) supplemented with 10% HI-FBS (VWR: 10802-772), 1× Pen/Strep (Thermo Fisher: 15140122), 1× NEAA (Thermo Fisher: 1140050), 1× glutamax (Thermo Fisher: 35050061), and 1 mM sodium pyruvate (Thermo Fisher: 11360070)) at 37° C. and 5% CO2. One hour prior to transfection, the media was replaced with fresh, 37° C. complete DMEM (20 mL per one 150 mm dish) supplemented with additional 10 mM glucose (Alfa Aesar AAJ60067EQE). Per one 150 mm dish, 30 μg FL-SARM1 (SEQ. ID. 1; cloned in-house) plasmid was dissolved in 1 mL DMEM at ambient temperature and were mixed by inverting the tube 8-10 times. 90 μL of GenJet™ in vitro DNA transfection reagent (Ver2) was dissolved in 1 mL DMEM at ambient temperature and were mixed by inverting the tube 8-10 times. The plasmid and transfection agent solutions were combined, mixed by 8-10 inversions and incubated for 10 minutes at ambient temperature. 2 mL of this transfection mixture was added to each dish containing HEK293T cells as prepared above followed by a gentle mixing of 4-5 horizontal rotations. The dishes were incubated at 37° C. and 5% CO2 for 24 h. The dishes were removed from the incubator, the medium was aspirated and the cells were scraped off using cell scrapers in ice-cold 1× PBS (5 mL/dish, Thermo Fisher Scientific 10010023). The collected cells were centrifuged at 300 g for 5 minutes at 4° C. The supernatant was aspirated and the pellet was frozen at −80° C. until needed. The cell pellet from 30 dishes was dissolved in 30 mL 1× PBS supplemented with 4 tablets of Complete, Mini EDTA-free protease inhibitor cocktail at 4° C. This mixture was sonicated on ice for 10 minutes at 50% amplitude with a 1 second on/1 second off interval using a Model 120 sonicator (Thermo Fisher Scientific, FB120110). The lysate was centrifuged at 16000 g for 10 minutes at 4° C.
To a white 384-well Proxiplate (PerkinElmer, PE-6008280) was added 50 nL/well of a DMSO solution containing test compounds followed by 7.5 mL/well of a 0.067 mg/mL solution of SARM1 cellular lysate in reaction buffer (DPBS containing CHAPSO (0.1%) and fatty acid free BSA (0.032%)). The plate was centrifuged for 1 minute at 1000 RPM and then placed in an incubator at 23° C. for 15 minutes. To the wells were added 2.5 mL/well of a solution containing 40 mM NAD^+ and 4 mM NMN in reaction buffer. The plate was centrifuged for 1 min at 1000 RPM, the plate was sealed and placed in an incubator at 23° C. for 3.5 hours before adding 3.5 mL/well of NAD/NADH-Glo™ solution (preparation as described by Promega using the extended detection protocol). The plate was centrifuged for 1 minute at 1000 RPM and then incubated at 23° C. for 20 minutes. 1 mL/well of a 3.625 mM solution of menadione in DMSO was added and the plate was centrifuged for 1 minute at 1000 RPM. […] Percent inhibition was calculated as follows:
IC50 values were calculated from an 11 point curve using ½ log dilutions using a four-parameter logistic regression curve fit.

COc1cncc(-c2cc(NC(=O)N3[C@@H]4C[C@@H](C)C[C@@]3(c3nnc(C)o3)C4)c(F)cc2C(F)(F)F)c1 (single isomer, unassigned) [Example 122, cis-N-(2-fluoro-5-(5-methoxypyridin-3-yl)-4-(trifluoromethyl)phenyl)-3-methyl-1-(5-methyl-1,3,4-oxadiazol-2-yl)-6-azabicyclo[3.1.1]heptane-6-carboxamide]
IC50 (Activity (μM)): 10.7 µM | IC50 (Activity): > 10 µM

Cc1ccc(NC(=O)[C@H]2C[C@H](C3CC3)C2)cc1-c1cncc(F)c1 [Example 108, trans-3-cyclopropyl-N-[3-(5-fluoropyridin-3-yl)-4-methylphenyl]cyclobutane-1-carboxamide]
IC50 (Activity (μM)): 5.3 µM | IC50 (Activity): 1 to 10 µM

CO[C@H]1CC2C[C@H](C1)N2C(=O)Nc1cc(-c2cncc(F)c2)c(C)cc1F [Example 3, trans-N-(2-fluoro-5-(5-fluoropyridin-3-yl)-4-methylphenyl)-3-methoxy-6-azabicyclo[3.1.1]heptane-6-carboxamide]
IC50 (Activity (μM)): 2.5 µM | IC50 (Activity): 1 to 10 µM

Cc1ccc(NC(=O)N2[C@H](C)CCC[C@@H]2C)cc1-c1cncc(F)c1 [Example 21, cis-N-(3-(5-fluoropyridin-3-yl)-4-methylphenyl)-2,6-dimethylpiperidine-1-carboxamide]
IC50 (Activity (μM)): 1.5 µM | IC50 (Activity): 1 to 10 µM

Cc1ccc(-c2cc(NC(=O)N3C4CCCC3C4)ccc2C)cn1 [Example 70, N-[4-methyl-3-(6-methylpyridin-3-yl)phenyl]-6-azabicyclo[3.1.1]heptane-6-carboxamide]
IC50 (Activity (μM)): 0.3 µM | IC50 (Activity): 0.0001 to 1 µM

Cc1ccc(NC(=O)N2C3CCCC2C3)cc1-c1cnnnc1 [Example 130]
IC50 (Activity (μM)): 15.5 µM | IC50 (Activity): > 10 µM

O=C(Nc1ccc(Cl)c(-c2cncc(F)c2)c1)N1C2C[C@H](OC(F)F)C[C@H]1C2 [Example 55, trans-N-(4-chloro-3-(5-fluoropyridin-3-yl)phenyl)-3-(difluoromethoxy)-6-azabicyclo[3.1.1]heptane-6-carboxamide]
IC50 (Activity (μM)): 0.3 µM | IC50 (Activity): 0.0001 to 1 µM

O=C(Nc1ccc(CCF)c(-c2cncc(F)c2)c1)N1C2CCCC1C2 [Example 28, N-(4-(2-fluoroethyl)-3-(5-fluoropyridin-3-yl)phenyl)-6-azabicyclo[3.1.1]heptane-6-carboxamide]
IC50 (Activity (μM)): 0.8 µM | IC50 (Activity): 0.0001 to 1 µM

Cc1cncc(-c2cc(NC(=O)N3C4CCCC3C4)ccc2C)c1 [Example 115, N-[4-methyl-3-(5-methylpyridin-3-yl)phenyl]-6-azabicyclo[3.1.1]heptane-6-carboxamide]
IC50 (Activity (μM)): 0.1 µM | IC50 (Activity): 0.0001 to 1 µM

Cc1ccc(NC(=O)N2C3CC2CC(C)(O)C3)cc1-c1cncc(F)c1 (single isomer, unassigned) [Example 46, N-(3-(5-fluoropyridin-3-yl)-4-methylphenyl)-3-hydroxy-3-methyl-6-azabicyclo[3.1.1]heptane-6-carboxamide]
IC50 (Activity (μM)): 8.7 µM | IC50 (Activity): 1 to 10 µM

Cc1ccc(NC(=O)N2C[C@@H]3C[C@H]2C[C@@H]3C#N)cc1-c1cncc(F)c1 (relative stereo) [Example 24, trans-5-cyano-N-(3-(5-fluoropyridin-3-yl)-4-methylphenyl)-2-azabicyclo[2.2.1]heptane-2-carboxamide]
IC50 (Activity (μM)): 3.3 µM | IC50 (Activity): 1 to 10 µM

COc1ccc(-c2cc(NC(=O)N3[C@@H]4C[C@@H](C)C[C@H]3C4)c(F)cc2Cl)cn1 [Example 131, cis-N-[4-chloro-2-fluoro-5-(6-methoxy-3-pyridinyl)phenyl]-3-methyl-6-azabicyclo[3.1.1]heptane-6-carboxamide]
IC50 (Activity (μM)): 0.7 µM | IC50 (Activity): 0.0001 to 1 µM

Cc1ccc(NC(=O)N2C3CCCC2C3)cc1-c1cncc(OC(F)F)c1 [Example 48, N-(3-(5-(difluoromethoxy)pyridin-3-yl)-4-methylphenyl)-6-azabicyclo[3.1.1]heptane-6-carboxamide]
IC50 (Activity (μM)): 0.1 µM | IC50 (Activity): 0.0001 to 1 µM

Cc1ccc(NC(=O)N2C3CCCC2C3)cc1-c1cncc(OC(F)(F)F)c1 [Example 35, N-(4-methyl-3-(5-(trifluoromethoxy)pyridin-3-yl)phenyl)-6-azabicyclo[3.1.1]heptane-6-carboxamide]
IC50 (Activity (μM)): 0.1 µM | IC50 (Activity): 0.0001 to 1 µM

Cc1ccc(NC(=O)[C@H]2C[C@@H](C3CC3)C2)cc1-c1cncc(F)c1 [Example 109, cis-3-cyclopropyl-N-[3-(5-fluoropyridin-3-yl)-4-methylphenyl]cyclobutane-1-carboxamide]
IC50 (Activity (μM)): 0.5 µM | IC50 (Activity): 0.0001 to 1 µM

Cc1cc(F)c(NC(=O)N2C3C[C@H](C)C[C@@H]2C3)cc1-c1cncc(F)c1 [Example 41, cis-N-(2-fluoro-5-(5-fluoropyridin-3-yl)-4-methylphenyl)-3-methyl-6-azabicyclo[3.1.1]heptane-6-carboxamide]
IC50 (Activity (μM)): 0.04 µM | IC50 (Activity): 0.0001 to 1 µM

Cc1ccc(NC(=O)N2C3CCCC2C3)cc1-c1cncc(C(F)(F)F)c1 [Example 116, N-[4-methyl-3-[5-(trifluoromethyl)pyridin-3-yl]phenyl]-6-azabicyclo[3.1.1]heptane-6-carboxamide]
IC50 (Activity (μM)): 0.1 µM | IC50 (Activity): 0.0001 to 1 µM

C[C@@H]1CC2C[C@@H](C1)N2C(=O)Nc1ccc(F)c(-c2cncc(F)c2)c1 (single isomer, unassigned) [Example 57, trans-N-(4-fluoro-3-(5-fluoropyridin-3-yl)phenyl)-3-methyl-6-azabicyclo[3.1.1]heptane-6-carboxamide]
IC50 (Activity (μM)): 0.3 µM | IC50 (Activity): 0.0001 to 1 µM

C[C@@H]1CC2C[C@H](C1)N2C(=O)Nc1ccc(C(F)F)c(-c2cncc(F)c2)c1 [Example 42, cis-N-(4-(difluoromethyl)-3-(5-fluoropyridin-3-yl)phenyl)-3-methyl-6-azabicyclo[3.1.1]heptane-6-carboxamide]
IC50 (Activity (μM)): 0.06 µM | IC50 (Activity): 0.0001 to 1 µM

Cc1ccc(NC(=O)N2C3C[C@H](C)C[C@@H]2C3)cc1-c1cccnc1 [Example 17, cis-3-methyl-N-(4-methyl-3-(pyridin-3-yl)phenyl)-6-azabicyclo[3.1.1]heptane-6-carboxamide]
IC50 (Activity (μM)): 0.008 µM | IC50 (Activity): 0.0001 to 1 µM

COc1ccncc1-c1cc(NC(=O)N2C3CCCC2C3)ccc1C [Example 59, N-[3-(4-methoxypyridin-3-yl)-4-methylphenyl]-6-azabicyclo[3.1.1]heptane-6-carboxamide]
IC50 (Activity (μM)): 1.7 µM | IC50 (Activity): 1 to 10 µM

O=C(Nc1ccc(C2CC2)c(-c2cncc(F)c2)c1)N1C2CCCC1C2 [Example 66, N-(4-cyclopropyl-3-(5-fluoropyridin-3-yl)phenyl)-6-azabicyclo[3.1.1]heptane-6-carboxamide]
IC50 (Activity (μM)): 2 µM | IC50 (Activity): 1 to 10 µM

Cc1ccc(NC(=O)N2C3CCCC2C3)cc1-c1cccnc1C#N [Example 61, N-[3-(2-cyanopyridin-3-yl)-4-methylphenyl]-6-azabicyclo[3.1.1]heptane-6-carboxamide]
IC50 (Activity (μM)): 0.8 µM | IC50 (Activity): 0.0001 to 1 µM

Cc1nnc([C@]23C[C@H](C)C[C@H](C2)N3C(=O)Nc2ccc(C)c(-c3cncc(F)c3)c2)o1 (single isomer, unassigned) [Example 128, cis-N-(3-(5-fluoropyridin-3-yl)-4-methylphenyl)-3-methyl-1-(5-methyl-1,3,4-oxadiazol-2-yl)-6-azabicyclo[3.1.1]heptane-6-carboxamide]
IC50 (Activity (μM)): 11.6 µM | IC50 (Activity): > 10 µM

Cc1ccc(NC(=O)N2C3CC[C@H](C(=O)N(C)C)[C@@H]2C3)cc1-c1cncc(F)c1 [Example 33, cis-N^6-(3-(5-fluoropyridin-3-yl)-4-methylphenyl)-N^2,N^2-dimethyl-6-azabicyclo[3.1.1]heptane-2,6-dicarboxamide]
IC50 (Activity (μM)): 32.9 µM | IC50 (Activity): > 10 µM

Cc1ccc(NC(=O)N2CCOc3cccc(C#N)c3C2)cc1-c1cncc(F)c1 [Example 81]
IC50 (Activity (μM)): 5.6 µM | IC50 (Activity): 1 to 10 µM

COc1c(F)cncc1-c1cc(NC(=O)N2C3CCCC2C3)ccc1C [Example 90, N-(3-(5-fluoro-4-methoxypyridin-3-yl)-4-methylphenyl)-6-azabicyclo[3.1.1]heptane-6-carboxamide]
IC50 (Activity (μM)): 1.9 µM | IC50 (Activity): 1 to 10 µM

Cc1nnc(C23CCCC(C2)N3C(=O)Nc2ccc(C)c(-c3cncc(F)c3)c2)o1 (stereo not shown) [Example 98, N-[3-(5-fluoro-3-pyridyl)-4-methyl-phenyl]-1-(5-methyl-1,3,4-oxadiazol-2-yl)-6-azabicyclo[3.1.1]heptane-6-carboxamide]
IC50 (Activity (μM)): 0.2 µM | IC50 (Activity): 0.0001 to 1 µM

Cc1ccc(NC(=O)C2CCCN2c2ncccn2)cc1-c1cncc(F)c1 (racemic) [Example 104, N-[3-(5-fluoropyridin-3-yl)-4-methylphenyl]-1-pyrimidin-2-ylpyrrolidine-2-carboxamide]
IC50 (Activity (μM)): 26.4 µM | IC50 (Activity): > 10 µM
